{"source": "ChEMBL document CHEMBL5257032", "about": "“Therapeutic potential of coumarins as antiviral agents” (Eur J Med Chem, 2016)", "note": "pEC50, pIC50, pKi: −log10 of the molar value.", "data": [{"test_system": "Human immunodeficiency virus", "assay": "(§1) Antiviral activity against HIV infected in human H9 cells", "type": "functional, organism-based", "settings": "Human immunodeficiency virus 1, H9; read-out: EC50", "units": {"EC50": "µg/mL"}, "values": [{"molecule": "COc1c2ccoc2cc2oc(=O)ccc12", "note": "[BERGAPTEN]", "EC50": 0.354}, {"molecule": "COC(C)(C)C(O)COc1c2ccoc2cc2oc(=O)ccc12", "note": "(centres undefined)", "EC50": 33}, {"molecule": "CC(C)(O)C(O)COc1c2occc2cc2ccc(=O)oc12", "note": "(centres undefined)", "EC50": 0.115}, {"molecule": "CC(C)(Cl)C(O)COc1c2occc2cc2ccc(=O)oc12", "note": "(centres undefined)", "EC50": 2.25}, {"molecule": "O=c1ccc2cc3ccoc3cc2o1", "note": "[PSORALEN]", "EC50": 0.1}, {"molecule": "CC1(C)OC1COc1c2ccoc2cc2oc(=O)ccc12", "note": "(centres undefined)", "EC50": 1}, {"molecule": "CC1(C)OC1COc1c2occc2cc2ccc(=O)oc12", "note": "(centres undefined)", "EC50": 2.37}, {"molecule": "CC(C)(O)C(O)COc1c2ccoc2cc2oc(=O)ccc12", "note": "(centres undefined)", "EC50": 10}]}, {"test_system": "Human immunodeficiency virus", "assay": "as §1", "type": "functional, organism-based", "settings": "Human immunodeficiency virus 1, H9; read-out: ED50 (the source's name)", "units": {"EC50": "µg/mL"}, "values": [{"molecule": "O=c1ccc2cc(O)c(O)cc2o1", "note": "[ESCULETIN]", "EC50": 2.51}]}, {"target": "Human immunodeficiency virus type 1 reverse transcriptase (Human immunodeficiency virus 1, UniProt Q72547)", "assay": "Inhibition of HIV1 reverse transcriptase", "settings": "not given", "values": [{"molecule": "Cc1cc(=O)oc2c3c(c4c(c12)OC(C)(C)C=C4)O[C@H](C)[C@@H](C)[C@@H]3O", "note": "[(+)-CORDATOLIDE A]", "pIC50": 4.91}, {"molecule": "CCCc1cc(=O)oc2c3c(c4c(c12)OC(C)(C)C=C4)O[C@H](C)[C@H](C)[C@@H]3O", "note": "[CALANOLIDE C]", "pIC50": 4.52}, {"molecule": "Cc1cc(=O)oc2c3c(c4c(c12)OC(C)(C)C=C4)O[C@H](C)[C@@H](C)[C@H]3O", "pIC50": 4.72}]}, {"target": "not listed separately", "assay": "Binding affinity to HIV protease assessed as inhibition constant", "parameters": "species or system Human immunodeficiency virus", "settings": "not given", "values": [{"molecule": "CCC(c1cccc(NC(=O)CCNC(=O)OC(C)(C)C)c1)c1c(O)c2ccccc2oc1=O", "note": "(centres undefined)", "pKi": 6.55}, {"molecule": "CCC(c1cccc(NC(=O)[C@@H]2CCCN2C(=O)OC(C)(C)C)c1)c1c(O)c2ccccc2oc1=O", "note": "(some centres undefined)", "pKi": 5.44}, {"molecule": "CCC(c1cccc(NC(=O)CCn2ccc3ccccc32)c1)c1c(O)c2ccccc2oc1=O", "note": "(centres undefined)", "pKi": 6.96}, {"molecule": "CCC(c1cccc(NC(=O)CNC(=O)OC(C)(C)C)c1)c1c(O)c2ccccc2oc1=O", "note": "(centres undefined)", "pKi": 6.80}, {"molecule": "CCNC(=O)Nc1cccc(C(c2c(O)c3c(oc2=O)CCCCCC3)C2CC2)c1", "note": "(centres undefined)", "pKi": 7.14}, {"molecule": "CCC(c1cccc(NC(=O)CCCNC(=O)OC(C)(C)C)c1)c1c(O)c2ccccc2oc1=O", "note": "(centres undefined)", "pKi": 5.80}, {"molecule": "CCC(c1cccc(NC(=O)[C@H](C)NC(=O)OC(C)(C)C)c1)c1c(O)c2ccccc2oc1=O", "note": "(some centres undefined)", "pKi": 6.77}, {"molecule": "CCCC(=O)Nc1cccc(C(c2c(O)c3c(oc2=O)CCCCCC3)C2CC2)c1", "note": "(centres undefined)", "pKi": 7.62}, {"molecule": "CC(C)(C)OC(=O)NC(Cc1c[nH]cn1)C(=O)Nc1cccc(C(c2c(O)c3c(oc2=O)CCCCCC3)C2CC2)c1", "note": "(centres undefined)", "pKi": 8.52}, {"molecule": "CCC(c1ccccc1)c1c(O)c2c(oc1=O)CCC2", "note": "(centres undefined)", "pKi": 6.15}]}, {"test_system": "Human immunodeficiency virus 1", "assay": "Antiviral activity against HIV-1 infected in human H9 cells", "type": "functional, organism-based", "settings": "Human immunodeficiency virus 1, H9; read-out: EC50", "values": [{"molecule": "Cc1cc(=O)oc2c3c(ccc12)OC(C)(C)[C@H](OC(=O)C12CCC(C)(C(=O)O1)C2(C)C)[C@@H]3OC(=O)[C@@]12CC[C@](C)(C(=O)O1)C2(C)C", "pEC50": 11.74}, {"molecule": "C/C=C(\\C)O[C@@H]1c2c(ccc3ccc(=O)oc23)OC(C)(C)[C@@H]1OC(C)=O", "pEC50": 5.34}, {"molecule": "Cc1c(CO)c(=O)oc2c3c(ccc12)OC(C)(C)[C@H](OC(=O)C12CCC(C)(C(=O)O1)C2(C)C)[C@@H]3OC(=O)[C@@]12CC[C@](C)(C(=O)O1)C2(C)C", "pEC50": 8.40}, {"molecule": "CC1(C)C=Cc2c(ccc3ccc(=O)oc23)O1", "note": "[SESALIN]", "pEC50": 5.46}]}, {"target": "Human immunodeficiency virus type 1 protease (Human immunodeficiency virus 1, UniProt Q72874)", "assay": "(§2) Inhibition of HIV-1 protease", "settings": "not given", "values": [{"molecule": "O=C(O)COc1ccc(-c2cc(O)c(SCCc3ccccc3)c(=O)o2)cc1", "pIC50": 6.80}, {"molecule": "O=c1oc(-c2ccccc2)cc(O)c1C(SC1CCCC1)C1CCCC1", "note": "(centres undefined)", "pIC50": 6.65}, {"molecule": "O=c1oc2cc(O)ccc2c(O)c1C(c1ccc2ccccc2c1)c1c(O)c2ccc(O)cc2oc1=O", "pIC50": 5.38}, {"molecule": "O=c1oc2cc(O)ccc2c(O)c1-c1ccc(O)cc1", "pIC50": 5.70}, {"molecule": "O=c1oc(-c2ccccc2)cc(O)c1Sc1ccccc1", "pIC50": 5.52}, {"molecule": "O=C(O)CCCCC1(c2ccccc2)CC(O)=C(SCCc2ccccc2)C(=O)O1", "note": "(centres undefined)", "pIC50": 5.30}, {"molecule": "Cc1cc(SC2=C(O)C[C@@](CCc3ccc(N)cc3)(C(C)C)OC2=O)c(C(C)(C)C)cc1CO", "pEC50": 6.70}, {"molecule": "O=c1oc2ccccc2c(O)c1C(c1ccccc1)c1c(O)c2ccccc2oc1=O", "pIC50": 4.37}, {"molecule": "CC(=O)CC(c1ccccc1)c1c(O)c2ccc(C)c(C)c2oc1=O", "note": "(centres undefined)", "pIC50": 5.72}, {"molecule": "CCCC1(CCC)CC(O)=C(C(c2ccccc2)C2CC2)C(=O)O1", "note": "(centres undefined)", "pIC50": 5.30}]}, {"target": "Human immunodeficiency virus type 1 protease (Human immunodeficiency virus 1) (UniProt Q72874)", "assay": "as §2", "settings": "not given", "units": {"ID50": "nM"}, "values": [{"molecule": "CCCCCCc1cc2c(O)c(C(c3ccccc3)c3c(O)c4cc(CCCCCC)c(O)cc4oc3=O)c(=O)oc2cc1O", "ID50": 320}, {"molecule": "CC(C)c1cccc(C(C)C)c1NC(=O)C(=O)CC(=O)CC(c1ccccc1)c1c(O)c2ccccc2oc1=O", "note": "(centres undefined)", "ID50": 31000}, {"molecule": "O=c1oc2ccccc2c(O)c1Sc1c(O)c2ccccc2oc1=O", "ID50": 21000}]}]}
